The source of these data is patent publication US11530186B2, “Inhibitors for the β-catenin / T-cell factor protein-protein interaction” (H. LEE MOFFITT CANCER CENTER AND RESEARCH INSTITUTE, INC., priority 2018, dated 2022).

Read-outs that look alike come from different tables or passages of the source.

The test system of assay [1] is SW480 cells. In words: MTS cell viability assay, SW480. In kind it is cell-based. The conditions noted are these: Homo sapiens, SW480, 72 h, mean ± SD (n = 3). As for the experimental part:
(§1) MTS Cell Viability Assay. Colorectal cancer cells (SW480 and HCT116), TNBC cells (MDA-MB-231, MDA-MB-468, and BT-20), and lung cancer A549 cells were seeded in 96-well plates at 5×10^3 cells/well, maintained overnight at 37° C., and incubated with the tested compounds at various concentrations. Cell viability was monitored after 72 h using a freshly prepared mixture of 1 part phenazine methosulfate (PMS, Sigma) solution (0.92 mg/mL) and 19 parts 3-(4,5-dimethylthiazol-2-yl)-5-(3-carboxymethoxyphenyl)-2-(4-sulfophenyl)-2H-tetrazolium (MTS, Promega) solution (2 mg/mL). Cells were incubated in 10 μL of this solution at 37° C. for 3 h, and A490 was measured. The effect of each compound is expressed as the concentration required to reduce A490 by 50% (IC50) relative to DMSO-treated cells. Experiments were performed in triplicate.

Assay [2] has as its system A549 cells. In words: MTS cell viability assay, A549. It is filed as cell-based. The conditions noted are these: Homo sapiens, 72 h, mean ± SD (n = 3), Table 4, read-out: MTS cell viability IC50, Wnt normal A549. Here is the method:
as §1
(Tetrazolium dyes change colour on reduction, which living cells bring about.)

For assay [3], the target named is T1, β-catenin/Tcf protein-protein interaction (Homo sapiens, UniProt P35222).
T1 construct: Wild-type β-catenin (residues 138-781) were cloned into a pET-28b vector; 6×histidine (C); made in house; host or cells: E. coli BL21 DE3
T1 sequence (P35222 138-781): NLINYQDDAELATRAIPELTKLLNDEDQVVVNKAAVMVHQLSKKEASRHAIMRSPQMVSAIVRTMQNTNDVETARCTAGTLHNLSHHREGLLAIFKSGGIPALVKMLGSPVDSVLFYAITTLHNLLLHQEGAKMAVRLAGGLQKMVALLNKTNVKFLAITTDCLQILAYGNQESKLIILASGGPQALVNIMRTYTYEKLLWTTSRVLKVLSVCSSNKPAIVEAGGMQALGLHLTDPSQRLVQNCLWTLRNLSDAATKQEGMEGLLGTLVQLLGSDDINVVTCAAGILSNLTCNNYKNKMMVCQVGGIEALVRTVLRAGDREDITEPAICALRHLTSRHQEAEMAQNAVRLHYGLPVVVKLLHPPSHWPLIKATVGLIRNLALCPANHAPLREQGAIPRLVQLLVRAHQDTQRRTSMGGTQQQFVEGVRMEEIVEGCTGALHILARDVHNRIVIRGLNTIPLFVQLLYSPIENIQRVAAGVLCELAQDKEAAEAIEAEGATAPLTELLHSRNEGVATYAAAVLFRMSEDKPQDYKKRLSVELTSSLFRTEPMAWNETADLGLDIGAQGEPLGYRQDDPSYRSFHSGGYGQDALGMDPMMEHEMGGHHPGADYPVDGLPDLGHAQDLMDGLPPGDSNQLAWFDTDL
As to the kind of experiment: FP competitive inhibition assay. In kind it is binding. In outline: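 His-tagged human β-catenin (residues 138-781, E. coli-expressed) at 10 nM with 2.5 nM fluorescein-labeled Tcf4 (7-51) in PBS-type buffer with bovine γ-globulin and 0.01% Triton X-100. Compounds added, 1.5 h at 4 °C, 1% DMSO, before fluorescence polarization read. IC50 by nonlinear fit; Ki derived from IC50.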

Assay [4] has as its system HCT116 cells. In words: MTS cell viability assay, HCT116. In kind it is cell-based. The conditions noted are these: Homo sapiens, HCT-116; 72 h; mean ± SD (n = 3); Table 5; read-out: MTS cell viability IC50, Wnt hyperactive cancer cells HCT116. Here is the method: as §1
Setting [5] is: Table 4, read-out: MTS cell viability IC50, Wnt hyperactive SW480 Cells (converted).
Where [6] appears, read: Assay 1, mean ± SD (n = 3), read-out: Ki ± SD, Assay 1.
Where [7] appears, read: Assay 2, mean ± SD (n = 3), read-out: Ki ± SD, Assay 2.
The mark [8] stands for this setting: Table 5, read-out: MTS cell viability IC50, Wnt hyperactive cancer cells SW480.
[9] abbreviates: Assay 3, mean ± SD (n = 3), read-out: Ki ± SD, Assay 3.

As for `COC(=O)c1ccc2c(c1)c(CCc1ccc(Cl)cc1)c(CCc1nc3ccccc3[nH]1)n2CCc1nn[nH]n1` [Compound 34, Methyl 2-(2-(1H-benzo[d]imidazol-2-yl)ethyl)-1-(2-(2H-tetrazol-5-yl)ethyl)-3-(4-chlorophenethyl)-1H-indole-5-carboxylate], the IC50 (commonly the concentration needed to halve the response being measured) was 69 ± 11 µM in assay [1] (setting [5]) and 120 ± 44 µM in assay [2].
As for `O=C(NCc1ccc(Cl)cc1)c1ccc2c(c1)c(CCc1ccc(F)cc1)c(CCc1nc3ccccc3s1)n2CCc1nn[nH]n1` [Compound 45, 1-(2-(2H-tetrazol-5-yl)ethyl)-2-(2-(benzo[d]thiazol-2-yl)ethyl)-N-(4-chlorobenzyl)-3-(4-fluoro-phenethyl)-1H-indole-5-carboxamide], the results for the inhibitory constant (Ki) in assay [3] (setting [6]) and in assay [3] (setting [7]) were 0.97 ± 0.39 µM and 0.7 ± 0.02 µM, respectively. In addition, the IC50 amounted to 14 ± 2.2 µM in assay [1] (setting [8]) and 12 ± 1.9 µM in assay [4].
Taken in the same sequence, the figures for `COc1ccc2sc(CCc3c(CCc4ccc(Cl)cc4)c4cc(C(=O)NCc5ccccc5N(C)C)ccc4n3CCc3nn[nH]n3)nc2c1` [Compound 54, 1-(2-(2H-tetrazol-5-yl)ethyl)-3-(4-chlorophenethyl)-N-(2-(dimethylamino)benzyl)-2-(2-(5-methoxybenzo[d]thiazol-2-yl)ethyl)-1H-indole-5-carboxamide] were 1.9 ± 0.14 µM, 3 ± 0.24 µM, 11 ± 1.5 µM and 11 ± 1.7 µM.
Taken in the same sequence, the figures for `COc1ccc2sc(CCc3c(CCc4ccc(Cl)cc4)c4cc(C(=O)NCc5ccccn5)ccc4n3CCc3nn[nH]n3)nc2c1` [Compound 55, 1-(2-(2H-tetrazol-5-yl)ethyl)-3-(4-chlorophenethyl)-2-(2-(5-methoxybenzo[d]thiazol-2-yl)ethyl)-N-(pyridin-2-ylmethyl)-1H-indole-5-carboxamide] were 2.9 ± 0.5 µM, 5.1 ± 0.42 µM, 13 ± 1.7 µM and 20 ± 2.7 µM.
In the same order, the values of `COc1ccc2sc(CCc3c(CCc4ccc(Cl)cc4)c4cc(C(=O)NCc5ccncc5)ccc4n3CCc3nn[nH]n3)nc2c1` [Compound 56, 1-(2-(2H-tetrazol-5-yl)ethyl)-3-(4-chlorophenethyl)-2-(2-(5-methoxybenzo[d]thiazol-2-yl)ethyl)-N-(pyridin-4-ylmethyl)-1H-indole-5-carboxamide] are 4.2 ± 0.43 µM, 1.9 ± 0.17 µM, 14 ± 1.7 µM and 23 ± 2.5 µM.
In the case of `COc1ccc2sc(CCc3c(CCc4ccc(Cl)cc4)c4cc(C(=O)NCc5ccncn5)ccc4n3CCc3nn[nH]n3)nc2c1` [Compound 57, 1-(2-(2H-tetrazol-5-yl)ethyl)-3-(4-chlorophenethyl)-2-(2-(5-methoxybenzo[d]thiazol-2-yl)ethyl)-N-(pyrimidin-4-ylmethyl)-1H-indole-5-carboxamide], the values for the Ki in assay [3] (setting [6]) and in assay [3] (setting [7]) were 3.6 ± 0.35 µM and 2.8 ± 0.17 µM, respectively. For the same compound, the IC50 in assay [1] (setting [8]) came to 19 ± 1.6 µM; in assay [4], 24 ± 2.8 µM.
Regarding `COc1ccc2sc(CCc3c(CCc4ccc(Cl)cc4)c4cc(C(=O)NCc5cnccn5)ccc4n3CCc3nn[nH]n3)nc2c1` [Compound 58, 1-(2-(2H-tetrazol-5-yl)ethyl)-3-(4-chlorophenethyl)-2-(2-(5-methoxybenzo[d]thiazol-2-yl)ethyl)-N-(pyrazin-2-ylmethyl)-1H-indole-5-carboxamide], the figures for the Ki in assay [3] (setting [6]) and in assay [3] (setting [7]) were 2 ± 0.29 µM and 7.6 ± 0.94 µM, respectively. The IC50 in assay [1] (setting [8]) is 19 ± 1.8 µM; in assay [4] it was 12 ± 1.8 µM.
Take `COc1ccc2sc(CCc3c(CCc4ccc(Cl)cc4)c4cc(C(=O)NCc5csc(C)n5)ccc4n3CCc3nn[nH]n3)nc2c1` [Compound 60, 1-(2-(2H-tetrazol-5-yl)ethyl)-3-(4-chlorophenethyl)-2-(2-(5-methoxybenzo[d]thiazol-2-yl)ethyl)-N-((2-methylthiazol-4-yl)methyl)-1H-indole-5-carboxamide]: the Ki (commonly the dissociation constant of the complex between target and ligand, obtained from inhibition or displacement) in assay [3] (setting [6]) worked out at 0.93 ± 0.092 µM; in assay [3] (setting [7]), 4.7 ± 0.28 µM. The IC50 in assay [1] (setting [8]) is 14 ± 1.9 µM; in assay [4], 18 ± 2.8 µM.
Regarding `COc1ccc2sc(CCc3c(CCc4ccc(Cl)cc4)c4cc(C(=O)NCc5ccno5)ccc4n3CCc3nn[nH]n3)nc2c1` [Compound 61, 1-(2-(2H-tetrazol-5-yl)ethyl)-3-(4-chlorophenethyl)-N-(isoxazol-5-ylmethyl)-2-(2-(5-methoxybenzo[d]thiazol-2-yl)ethyl)-1H-indole-5-carboxamide], the values for the Ki in assay [3] (setting [6]) and in assay [3] (setting [7]) were 1 ± 0.094 µM and 2.9 ± 0.24 µM, respectively. For the same compound, the concentration for half-maximal inhibition (IC50) in assay [1] (setting [8]) is 35 ± 4.3 µM; in assay [4], 40 ± 5.3 µM.
Consider `COc1ccc2sc(CCc3c(CCc4ccc(Cl)cc4)c4cc(C(=O)NCc5ccon5)ccc4n3CCc3nn[nH]n3)nc2c1` [Compound 62, 1-(2-(2H-tetrazol-5-yl)ethyl)-3-(4-chlorophenethyl)-N-(isoxazol-3-ylmethyl)-2-(2-(5-methoxybenzo[d]thiazol-2-yl)ethyl)-1H-indole-5-carboxamide], for which the Ki worked out at 3.1 ± 0.18 µM in assay [3] (setting [6]) and 7.6 ± 0.55 µM in assay [3] (setting [7]). For the same compound, the IC50 is 21 ± 2.1 µM in assay [1] (setting [8]) and 28 ± 3.8 µM in assay [4].
On to `COc1ccc2sc(CCc3c(CCc4ccc(Cl)cc4)c4cc(C(=O)OCc5ccc(Cl)cc5)ccc4n3CCc3nn[nH]n3)nc2c1` [Compound 70, 4-Chlorobenzyl 1-(2-(2H-tetrazol-5-yl)ethyl)-3-(4-chlorophenethyl)-2-(2-(5-methoxybenzo-[d]thiazol-2-yl)ethyl)-1H-indole-5-carboxylate], for which the Ki came out at 2.6 ± 0.57 µM in assay [3] (setting [6]), 0.22 ± 0.06 µM in assay [3] (setting [7]) and 2.6 ± 0.32 µM in assay [3] (setting [9]). Also, the results for the IC50 in assay [1] (setting [5]) and in assay [2] were 160 ± 17 µM and 310 ± 27 µM, respectively.
For `Cc1ccc(CCc2c(-c3ccsc3)n(CCc3nn[nH]n3)c3ccc(C(=O)O)cc23)cc1` [Compound 78, 1-(2-(2H-tetrazol-5-yl)ethyl)-3-(4-methylphenethyl)-2-(thiophen-3-yl)-1H-indole-5-carboxylic acid], the inhibition constant (Ki) is 0.4 ± 0.14 µM in assay [3] (setting [6]); 0.97 ± 0.14 µM in assay [3] (setting [7]); 0.25 ± 0.079 µM in assay [3] (setting [9]); 0.36 ± 0.07 µM in assay [3] (Assay 4, mean ± SD (n = 3), read-out: Ki ± SD, Assay 4); 0.23 µM in assay [3] (Assay 5, mean ± SD (n = 3), read-out: Ki ± SD, Assay 5). For the same compound, the IC50 in assay [1] (setting [8]) and in assay [4] was more than 400 µM each time.
For `Cc1ccc(CCc2c(-c3ccsc3)n(CCc3nn[nH]n3)c3ccc(C(=O)NO)cc23)cc1` [Compound 90, 1-(2-(2H-tetrazol-5-yl)ethyl)-N-hydroxy-3-(4-methylphenethyl)-2-(thiophen-3-yl)-1H-indole-5-carboxamide], the Ki is 0.34 ± 0.043 µM in assay [3] (setting [6]) and 0.24 ± 0.043 µM in assay [3] (setting [7]). For the same compound, the results for the IC50 in assay [1] (setting [8]) and in assay [4] were 115 ± 22 µM and 133 ± 4.1 µM, respectively.
`Cc1ccc(CCc2c(-c3ccsc3)n(CCc3nn[nH]n3)c3ccc(C(=O)NCc4ccon4)cc23)cc1` [Compound 93, 1-(2-(2H-tetrazol-5-yl)ethyl)-N-(isoxazol-3-ylmethyl)-3-(4-methylphenethyl)-2-(thiophen-3-yl)-1H-indole-5-carboxamide]: the inhibitory constant (Ki) is 7.2 ± 0.77 µM in assay [3] (setting [6]), 7.4 ± 0.23 µM in assay [3] (setting [7]) and 13 ± 1.3 µM in assay [3] (setting [9]). In addition, the IC50 in assay [1] (setting [8]) was 36 ± 3.9 µM; in assay [4], 44 ± 5.4 µM.
